{"source": "patent US20240368192A1", "about": "“Nitrogen-Containing Heterocyclic Compound, and Preparation Method Therefor, Intermediate Thereof, and Application Thereof” (Shanghai Allist Pharmaceuticals Co., Ltd., priority 2021, published 2024)", "key": {"[1]": {"molecular_target": "Ba/F3 KRAS-G12D cells (Homo sapiens, UniProt P01116, G12D, cells depend on it)", "sequence (P01116 whole entry G12D)": "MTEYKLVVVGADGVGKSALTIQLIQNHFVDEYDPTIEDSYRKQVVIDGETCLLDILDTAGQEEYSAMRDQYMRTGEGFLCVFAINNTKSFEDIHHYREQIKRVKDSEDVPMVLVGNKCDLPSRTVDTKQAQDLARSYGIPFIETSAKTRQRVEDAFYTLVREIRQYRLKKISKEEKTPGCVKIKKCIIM", "assay": "Proliferation inhibitory activity on Ba/F3 KRAS-G12D stably transfected cell line (CellTiter-Glo, 72 hours)", "format": "cell-based, mouse", "details": "read-out: Ba/F3 KRAS-G12D IC50", "description": "(§1) Test Example 1: Proliferation Inhibitory Activity on Ba/F3 KRAS-G12D, Ba/F3 KRAS-G12V Stably Transfected Cell Lines and AGS Tumor Cell Lines Containing KRAS G12D Mutations\n(§2) To determine the proliferation inhibitory activity of the compounds in vitro on mouse pro-B cells Ba/F3 (Ba/F3 KRAS-G12D and Ba/F3 KRAS-G12V cells stably expressing KRAS G12D/V mutant proteins) and gastric cancer AGS cells expressing KRAS G12D mutant protein.\n(§3) Cell sources. Ba/F3 KRAS-G12D and Ba/F3 KRAS-G12V were purchased from Kyinno Biotech (Beijing) Co., Ltd, Cat. No.: KC-1259 and KC-1261, respectively; AGS was purchased from Shanghai Bioleaf Biotech Co., Ltd.\n(§4) Cells in the logarithmic growth phase were seeded in a 96-well plate (8000, 8000, 4000 cells/well, 90 μL/well for Ba/F3 KRAS-G12D, Ba/F3 KRAS-G12V, and AGS cells respectively), incubated at 37° C. for 1 day with 5% CO2, and then a gradient dilution of the test compound was added thereto (compounds 1 to 28 and comparative compounds). The details were as follows, the compound stock solution (10 mM) previously dissolved in DMSO was diluted to 10 gradient concentrations at a fold ratio (4 fold) and diluted to 10 fold of the target concentration in another 96-well plate with culture medium, and then 10 μL/well of the compound solution was added to the 96-well plate seeded with cells to reach the target concentration (10000, 2500, 625, 156, 39, 10, 2.5, 0.6, 0.15, 0.04 nM). Each concentration was provided with 3 duplicate wells and a blank control. After continued incubation at 37° C. and 5% CO2 for 72 hours, 50 μL of CellTiter-Glo*2.0 reagent (luciferase ATP bioluminescence detection reagent, purchased from Promega, Cat. No.: G9243) was added to each well, shaken for 2 minutes, and incubated at room temperature for 8 minutes, and then fluorescence luminescence intensity was detected (light collection time was 100 ms). The inhibitory rate of compounds with various concentrations on cell proliferation was calculated. Cell proliferation inhibition rate (%)=[(luminous intensitycontrol group containing cell culture medium for 72 hour−luminous intensitycompound group for 72 hour)/(luminous intensitycontrol group containing cell culture medium for 72 hours−luminous intensitycontrol group without cell culture medium for 72 hour)]×100%. GraphPad Prism 8.3 software was used to analyze the data, and nonlinear S-curve regression was used to fit the data to obtain a dose-effect curve, from which the IC50 value was calculated."}, "[2]": {"system": "AGS cells", "assay": "Proliferation inhibitory activity on AGS tumor cell line containing KRAS G12D mutation (CellTiter-Glo, 72 hours)", "format": "cell-based", "description": "as §1, §2, §3, §4"}, "[3]": {"molecular_target": "Ba/F3 KRAS-G12V cells (Homo sapiens, UniProt P01116, G12V, cells depend on it)", "sequence (P01116 whole entry G12V)": "as the sequence (P01116 whole entry G12D) above, with D12V counted along it", "assay": "Proliferation inhibitory activity on Ba/F3 KRAS-G12V stably transfected cell line (CellTiter-Glo, 72 hours)", "format": "cell-based, mouse", "details": "read-out: Ba/F3 KRAS-G12V IC50", "description": "as §1, §2, §3, §4"}}, "note": "Counter-ions that a name gives are not always drawn. Like-named read-outs stand apart in the source and are kept apart here."}
{"smiles": "C#Cc1c(F)ccc2cc(O)cc(-c3ncc4c(N5CCC(N)C(F)(F)C5)nc(OC[C@@]56CCCN5C[C@H](F)C6)nc4c3F)c12", "note": "(single isomer, unassigned) [Compound 20-P1]", "values": [{"measurement": "GI50", "setting": "[1]", "value": "≤ 0.1", "unit": "µM"}, {"measurement": "IC50", "setting": "[2]; Homo sapiens", "value": "0.1 to 5", "unit": "µM"}, {"measurement": "GI50", "setting": "[3]", "value": "5 to 10", "unit": "µM"}]}
{"smiles": "C#Cc1c(F)ccc2cc(O)cc(-c3ncc4c(N5CCC(N)C(F)(F)C5)nc(OC[C@@]56CCCN5C[C@H](F)C6)nc4c3F)c12", "note": "(single isomer, unassigned) [Compound 20-P2]", "values": [{"measurement": "GI50", "setting": "[1]", "value": "0.1 to 5", "unit": "µM"}, {"measurement": "IC50", "setting": "[2]", "value": "0.1 to 5", "unit": "µM"}, {"measurement": "GI50", "setting": "[3]", "value": "5 to 10", "unit": "µM"}]}
{"smiles": "C#Cc1c(F)ccc2cc(O)cc(-c3ncc4c(N5C[C@H](N)CC(F)(F)C5)nc(OC[C@@]56CCCN5C[C@H](F)C6)nc4c3F)c12", "note": "[Compound 6-P1, 4-(4-((R)-5-Amino-3,3-difluoropiperidin-1-yl)-8-fluoro-2-(((2R,7aS)-2-fluorotetrahydro-1H-pyrrolizin-7a(5H)-yl)methoxy)pyrido[4,3-d]pyrimidin-7-yl)-5-ethynyl-6-fluoronaphthalen-2-ol]", "values": [{"measurement": "GI50", "setting": "[1]", "value": "0.1 to 5", "unit": "µM"}, {"measurement": "IC50", "setting": "[2]; Homo sapiens", "value": "5 to 10", "unit": "µM"}, {"measurement": "GI50", "setting": "[3]", "value": "5 to 10", "unit": "µM"}]}
{"smiles": "C#Cc1c(F)ccc2cc(O)cc(-c3ncc4c(N5C[C@@H](N)CC(F)(F)C5)nc(OC[C@@]56CCCN5C[C@H](F)C6)nc4c3F)c12", "note": "[Compound 6-P2, 4-(4-((S)-5-amino-3,3-difluoropiperidin-1-yl)-8-fluoro-2-(((2R,7aS)-2-fluorotetrahydro-1H-pyrrolizin-7a(5H)-yl)methoxy)pyrido[4,3-d]pyrimidin-7-yl)-5-ethynyl-6-fluoronaphthalen-2-ol]", "values": [{"measurement": "GI50", "setting": "[1]", "value": "≤ 0.1", "unit": "µM"}, {"measurement": "IC50", "setting": "[2]; Homo sapiens", "value": "0.1 to 5", "unit": "µM"}, {"measurement": "GI50", "setting": "[3]", "value": "5 to 10", "unit": "µM"}]}
{"smiles": "C#Cc1c(F)ccc2cc(O)cc(-c3ncc4c(N5C[C@H]6C[C@@]6(N)C5)nc(OC[C@@]56CCCN5C[C@H](F)C6)nc4c3F)c12", "note": "[Compound 10, 4-(4-((1S,5R)-1-Amino-3-azabicyclo[3.1.0]hexan-3-yl)-8-fluoro-2-(((2R,7aS)-2-fluorohexahydro-1H-pyrrolizin-7a-yl)methoxy)pyrido[4,3-d]pyrimidin-7-yl)-5-ethynyl-6-fluoronaphthalen-2-ol bis(2,2,2-trifluoroacetate)]", "values": [{"measurement": "GI50", "setting": "[1]", "value": "0.1 to 5", "unit": "µM"}, {"measurement": "IC50", "setting": "[2]; Homo sapiens", "value": "0.1 to 5", "unit": "µM"}, {"measurement": "GI50", "setting": "[3]", "value": "5 to 10", "unit": "µM"}]}
{"smiles": "Cc1cc(N)nc(-c2nc(Cl)c3c(N4C[C@H]5CC[C@@H](C4)N5)nc(OC[C@@]45CCCN4C[C@H](F)C5)nc3c2F)c1C(F)(F)F", "note": "[Compound 17, 6-(4-((1R,5S)-3,8-Diazabicyclo[3.2.1]octan-3-yl)-5-chloro-8-fluoro-2-(((2R,7aS)-2-fluorohexahydro-1H-pyrrolizin-7a-yl)methoxy)pyrido[4,3-d]pyrimidin-7-yl)-4-methyl-5-(trifluoromethyl)pyridin-2-amine bis(2,2,2-trifluoroacetate)]", "values": [{"measurement": "GI50", "setting": "[1]", "value": "0.1 to 5", "unit": "µM"}, {"measurement": "IC50", "setting": "[2]; Homo sapiens", "value": "5 to 10", "unit": "µM"}, {"measurement": "GI50", "setting": "[3]", "value": "5 to 10", "unit": "µM"}]}
{"smiles": "Cc1cc(N)nc(-c2nc(F)c3c(N4C[C@H]5CC[C@@H](C4)N5)nc(OC[C@@]45CCCN4C[C@H](F)C5)nc3c2F)c1C(F)(F)F", "note": "[Compound 18, 6-(4-((1R,5S)-3,8-Diazabicyclo[3.2.1]octan-3-yl)-5,8-difluoro-2-(((2R,7aS)-2-fluorohexahydro-1H-pyrrolizin-7a-yl)methoxy)pyrido[4,3-d]pyrimidin-7-yl)-4-methyl-5-(trifluoromethyl)pyridin-2-amine bis(2,2,2-trifluoroacetate)]", "values": [{"measurement": "GI50", "setting": "[1]", "value": "0.1 to 5", "unit": "µM"}, {"measurement": "IC50", "setting": "[2]; Homo sapiens", "value": "5 to 10", "unit": "µM"}, {"measurement": "GI50", "setting": "[3]", "value": "5 to 10", "unit": "µM"}]}
{"smiles": "C#Cc1c(F)ccc2cc(O)cc(-c3nc(F)c4c(N5C[C@H]6CC[C@@H](C5)N6)nc(OC[C@@]56CCCN5C[C@H](F)C6)nc4c3F)c12", "note": "[Compound 22, 4-(4-((1R,5S)-3,8-Diazabicyclo[3.2.1]octan-3-yl)-5,8-difluoro-2-(((2R,7aS)-2-fluorohexahydro-1H-pyrrolizin-7a-yl)methoxy)pyrido[4,3-d]pyrimidin-7-yl)-5-ethynyl-6-fluoronaphthalen-2-ol]", "values": [{"measurement": "GI50", "setting": "[1]", "value": 0.002, "unit": "µM"}, {"measurement": "IC50", "setting": "[2]; Homo sapiens", "value": 0.016, "unit": "µM"}, {"measurement": "GI50", "setting": "[3]", "value": "5 to 10", "unit": "µM"}]}
{"smiles": "C#Cc1c(F)ccc2cc(O)cc(-c3ncc4c(N5[C@H]6CC[C@@H]5[C@@H](F)[C@H](N)C6)nc(OC[C@@]56CCCN5C[C@H](F)C6)nc4c3F)c12", "note": "[Compound 24, 4-4-(4-((1R,2S,3R,5S)-3-Amino-2-fluoro-8-azabicyclo[3.2.1]octan-8-yl)-8-fluoro-2-(((2R,7aS)-2-fluorohexahydro-1H-pyrrolizin-7a-yl)methoxy)pyrido[4,3-d]pyrimidin-7-yl)-5-ethynyl-6-fluoronaphthalen-2-ol]", "values": [{"measurement": "GI50", "setting": "[1]", "value": 1.9, "unit": "µM"}, {"measurement": "IC50", "setting": "[2]; Homo sapiens", "value": 2.5, "unit": "µM"}, {"measurement": "GI50", "setting": "[3]", "value": "5 to 10", "unit": "µM"}]}
{"smiles": "C#Cc1c(F)ccc2cc(O)cc(-c3ncc4c(N5[C@@H]6CC[C@H]5[C@H](F)[C@@H](N)C6)nc(OC[C@@]56CCCN5C[C@H](F)C6)nc4c3F)c12", "note": "[Compound 25, 4-(4-((1S,2R,3S,5R)-3-Amino-2-fluoro-8-azabicyclo[3.2.1]octan-8-yl)-8-fluoro-2-(((2R,7aS)-2-fluorohexahydro-1H-pyrrolizin-7a-yl)methoxy)pyrido[4,3-d]pyrimidin-7-yl)-5-ethynyl-6-fluoronaphthalen-2-ol]", "values": [{"measurement": "GI50", "setting": "[1]", "value": 1, "unit": "µM"}, {"measurement": "IC50", "setting": "[2]; Homo sapiens", "value": 2.5, "unit": "µM"}, {"measurement": "GI50", "setting": "[3]", "value": "5 to 10", "unit": "µM"}]}
{"smiles": "Oc1cc(-c2nc(Cl)c3c(N4C[C@H]5CC[C@@H](C4)N5)nc(OC[C@@]45CCCN4C[C@H](F)C5)nc3c2F)c2c(F)c(F)ccc2c1", "note": "[Compound 26, 4-(4-((1R,5S)-3,8-diazabicyclo[3.2.1]octan-3-yl)-5-chloro-8-fluoro-2-(((2R,7aS)-2-fluorohexahydro-1H-pyrrolizin-7a-yl)methoxy)pyrido[4,3-d]pyrimidin-7-yl)-5,6-difluoronaphthalen-2-ol]", "values": [{"measurement": "GI50", "setting": "[1]", "value": 0.0017, "unit": "µM"}, {"measurement": "IC50", "setting": "[2]; Homo sapiens", "value": 0.028, "unit": "µM"}, {"measurement": "GI50", "setting": "[3]", "value": "5 to 10", "unit": "µM"}]}
{"smiles": "[2H]C#Cc1c(F)ccc2cc(O)cc(-c3nc(Cl)c4c(N5C[C@H]6CC[C@@H](C5)N6)nc(OC[C@@]56CCCN5C[C@H](F)C6)nc4c3F)c12", "note": "[Compound 28, 4-(4-((1R,5S)-3,8-Diazabicyclo[3.2.1]octan-3-yl)-5-chloro-8-fluoro-2-(((2R,7aS)-2-fluorotetrahydro-1H-pyrrolizin-7a(5H)-yl)methoxy)pyrido[4,3-d]pyrimidin-7-yl)-5-(ethynyl-d)-6-fluoronaphthalen-2-ol hydrochloride]", "values": [{"measurement": "GI50", "setting": "[1]", "value": 0.001, "unit": "µM"}, {"measurement": "IC50", "setting": "[2]; Homo sapiens", "value": 0.006, "unit": "µM"}]}
